Measured values taken from PubChem BioAssay (NCI).
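Following 48 hours of exposure in 96-well plates, responses at five concentrations were used to interpolate endpoints linearly. TGI denotes the concentration required for complete inhibition of growth.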

Key:
Assay in all cases: NCI-60 cell line screen, 48 h
[1] = test system: SNB-75 CNS
[2] = test system: SN12C renal
[3] = test system: SK-MEL-28 melanoma
[4] = test system: CAKI-1 renal
[5] = test system: RPMI-8226 leukemia
[6] = test system: BT-549 breast
[7] = test system: HCT-116 colon
[8] = test system: SK-OV-3 ovarian
[9] = test system: HOP-92 NSCLC
[10] = test system: TK-10 renal
[11] = test system: DU-145 prostate
[12] = test system: RXF 393 renal
[13] = test system: OVCAR-3 ovarian
[14] = test system: SF-268 CNS
[15] = test system: M14 melanoma
[16] = test system: PC-3 prostate
[17] = test system: SK-MEL-5 melanoma
[18] = test system: KM12 colon
[19] = test system: A549 NSCLC
[20] = test system: SK-MEL-2 melanoma
[21] = test system: K-562 leukemia
[22] = test system: OVCAR-8 ovarian
[23] = test system: EKVX NSCLC
[24] = test system: MCF7 breast
[25] = test system: MDA-N
[26] = test system: ACHN renal
[27] = test system: OVCAR-5 ovarian
[28] = test system: NCI-H460 lung
[29] = test system: MDA-MB-231 breast
[30] = test system: 786-0 renal
[31] = test system: OVCAR-4 ovarian
[32] = test system: IGROV1 ovarian
[33] = test system: SR leukemia
[34] = test system: T-47D breast
[35] = test system: U251 CNS
[36] = test system: NCI/ADR-RES ovarian
[37] = test system: UACC-257 melanoma
[38] = test system: UO-31 renal
[39] = test system: UACC-62 melanoma
[40] = test system: SW-620 colon
[41] = test system: COLO 205 colon
[42] = test system: NCI-H226 lung
[43] = test system: HT29 colon
[44] = test system: MALME-3M melanoma
[45] = test system: MDA-MB-435
[46] = test system: HOP-62 NSCLC
[47] = test system: HS 578T breast
[48] = test system: SNB-19 CNS
[49] = test system: HCC-2998 colon
[50] = test system: HCT-15 colon
[51] = test system: HL-60(TB) leukemia
[52] = test system: SF-295 CNS
[53] = test system: MOLT-4 leukemia
[54] = test system: SF-539 CNS
[55] = test system: NCI-H522 lung
[56] = test system: CCRF-CEM leukemia
[57] = test system: A498 renal
[58] = test system: LOX IMVI melanoma
[59] = test system: NCI-H23 lung

Measured: TGI

O=C(O)c1cc2ccccc2c(N=Nc2ccc(S(=O)(=O)O)cc2)c1O
not listed: [57] | [58] | [59]
> 100 µM: all other assays above

Oc1ccc(-c2nn3c(CCCCCCCCc4nnc5sc(-c6ccc(O)cc6)nn45)nnc3s2)cc1
not listed: [32] | [51]
> 100 µM: all other assays above
